Results reported in the supplement of paper PMC11061612.

Key:
Assay in all cases: Bliss excess, mean over the matrix (fraction); higher = more synergy
SK-MEL-24 (Melanoma) = system: SK-MEL-24 (Melanoma)
In short: (§1)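 After 24 hours at 37°C and 5% CO2 in 1536-well plates, cells in DMEM/F12 or RPMI plus 10% FBS received two-drug dose matrices for 72 hours. Viability came from CellTiter-Glo 2.0 luminescence and was scaled as inhibition, anchored at 0 by vehicle wells and at 1 by blank wells. Combination Emax is taken as the second-highest inhibition in the matrix, and Bliss excess as the observed combination effect less EA + EB − EA·EB, with EA and EB the single-agent effects.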

[1] = system: SBC-3 (Small Cell Lung Carcinoma)
In short: as §1

[2] = system: MRK-nu-1 (Breast Carcinoma)
In short: as §1

[3] = system: NCI-H1648 (Lung Adenocarcinoma)
In short: as §1

[4] = system: KNS-62 (Squamous Cell Lung Carcinoma)
In short: as §1

[5] = system: CAL-85-1 (Breast Carcinoma)
In short: as §1

[6] = system: COR-L105 (Lung Adenocarcinoma)
In short: as §1

[7] = system: NCI-H2009 (Lung Adenocarcinoma)
In short: as §1

MG-63 (Osteosarcoma) = system: MG-63 (Osteosarcoma)
In short: as §1

[8] = system: L-363 (Plasma Cell Myeloma)
In short: as §1

[9] = system: TK (B-Cell Non-Hodgkin's Lymphoma)
In short: as §1

[10] = system: RS4-11 (B-Lymphoblastic Leukemia)
In short: as §1

[11] = system: HT-1197 (Bladder Carcinoma)
In short: as §1

[12] = system: SUP-HD1 (Hodgkin's Lymphoma)
In short: as §1

[13] = system: NCI-H1975 (Lung Adenocarcinoma)
In short: as §1

[14] = system: C2BBe1 (Colorectal Carcinoma)
In short: as §1

DK-MG (Glioblastoma) = system: DK-MG (Glioblastoma)
In short: as §1

[15] = system: NCI-H2170 (Squamous Cell Lung Carcinoma)
In short: as §1

[16] = system: SBC-5 (Small Cell Lung Carcinoma)
In short: as §1

[17] = system: BT-474 (Breast Carcinoma)
In short: as §1

SMILES	Bliss excess (SK-MEL-24 (Melanoma))	Bliss excess [1]	Bliss excess [2]	Bliss excess [3]	Bliss excess [4]	Bliss excess [5]	Bliss excess [6]	Bliss excess [7]	Bliss excess (MG-63 (Osteosarcoma))	Bliss excess [8]	Bliss excess [9]	Bliss excess [10]	Bliss excess [11]	Bliss excess [12]	Bliss excess [13]	Bliss excess [14]	Bliss excess (DK-MG (Glioblastoma))	Bliss excess [15]	Bliss excess [16]	Bliss excess [17]
CN(CCO)CC[C@H](CSc1ccccc1)Nc1ccc(S(=O)(=O)NC(=O)c2ccc(N3CCC([C@@H](O)c4ccccc4-c4ccc(Cl)cc4)CC3)cc2)cc1S(=O)(=O)C(F)(F)F [AZD4320] + Nc1ccn([C@@H]2O[C@H](CO)[C@@H](O)C2(F)F)c(=O)n1 [Gemcitabine] (first compound max 1 µM, 7x7, partner max 0.3 µM)	-0.0082	0.0194	0.0117	-0.0274	-0.0024	-0.0055	-0.0111	-0.013	0.0293	0.0563	–	–	–	–	–	–	–	–	–	–
Cc1cc2ncnn2cc1Nc1ncc2c(n1)n(C1CCOCC1)c(=O)n2C [AZD7648] + COc1cc([C@@H]2c3cc4c(cc3[C@@H](O[C@@H]3O[C@@H]5CO[C@@H](C)O[C@H]5[C@H](O)[C@H]3O)[C@H]3COC(=O)[C@H]23)OCO4)cc(OC)c1O [Etoposide] (first compound max 10 µM, 7x7, partner max 10 µM)	0.0438	0.119	0.0829	-0.0577	0.056	0.0483	0.0299	0.116	0.0878	0.0582	–	–	–	–	–	–	–	–	–	–
CN(CCO)CC[C@H](CSc1ccccc1)Nc1ccc(S(=O)(=O)NC(=O)c2ccc(N3CCC([C@@H](O)c4ccccc4-c4ccc(Cl)cc4)CC3)cc2)cc1S(=O)(=O)C(F)(F)F [AZD4320] + C[C@@H](Nc1cc(F)cc(F)c1)c1cc(C(=O)N(C)C)cc2c(=O)cc(N3CCOCC3)oc12 [AZD8186] (first compound max 1 µM, 7x7, partner max 3 µM)	-0.0354	-0.0093	-0.0216	0.0323	0.0068	0.0145	-0.0279	-0.0035	-0.0149	0.0753	0.0312	0.0239	0.0598	0.0322	0.0261	0.0231	-0.0164	0.0284	0.0591	0.0516
C[C@@H](c1ccc2nccn2c1)n1nnc2ncc(-c3cnn(C)c3)nc21 [Savolitinib] + CC1(C)CCC(CN2CCN(c3ccc(C(=O)NS(=O)(=O)c4ccc(NCC5CCOCC5)c([N+](=O)[O-])c4)c(Oc4cnc5[nH]ccc5c4)c3)CC2)=C(c2ccc(Cl)cc2)C1 [Venetoclax] (first compound max 1 µM, 7x7, partner max 1 µM)	-0.0805	-0.0435	0.0851	-0.0253	-0.0616	-0.0468	-0.0423	-0.041	-0.0157	-0.0159	-0.0258	-0.0566	-0.0534	0.034	-0.0329	-0.0759	-0.119	-0.0336	-0.0451	-0.0682
Cc1cc2ncnn2cc1Nc1ncc2c(n1)n(C1CCOCC1)c(=O)n2C [AZD7648] + CCN(CCO)CCCOc1ccc2c(Nc3cc(CC(=O)Nc4cccc(F)c4)[nH]n3)ncnc2c1 [AZD2811] (first compound max 10 µM, 7x7, partner max 1 µM)	-0.0121	0.0455	0.0245	0.0369	0.0489	-0.0195	-0.0508	0.0669	0.0401	0.0321	0.0132	-0.0355	-0.0131	0.0506	0.008	0.0124	0.0189	0.0187	0.057	-0.0214
C[C@@H](c1ccc2nccn2c1)n1nnc2ncc(-c3cnn(C)c3)nc21 [Savolitinib] + CN(CC[C@H](CSC1=CC=CC=C1)NC2=C(C=C(C=C2)S(=O)(=O)NC(=O)C3=CC=C(C=C3)N4CCC(CC4)[C@H](C5=CC=CC=C5C6=CC=C(C=C6)Cl)O)S(=O)(=O)C(F)(F)F)CCO [AZD4320] (first compound max 1 µM, 7x7, partner max 1 µM)	–	–	–	–	–	–	–	–	–	–	-0.08	-0.0131	-0.0354	0.0355	-0.0555	-0.0348	-0.0585	-0.0589	-0.0003	-0.0534
COc1cc2ncnc(Nc3ccc(F)c(Cl)c3)c2cc1OCCCN1CCOCC1 [Gefitinib] + CC(C)n1c(=O)n(C)c2cnc3cc(F)c(-c4ccc(OCCCN5CCCCC5)nc4)cc3c21 [AZD1390] (first compound max 10 µM, 7x7, partner max 0.3 µM)	-0.0831	-0.0501	0.0492	-0.0521	-0.0783	-0.0236	-0.0374	-0.0519	-0.0772	-0.0135	-0.0495	-0.0484	-0.0549	-0.0683	-0.0676	-0.029	-0.0817	-0.0867	-0.0649	-0.0866
N#Cc1cnc(Nc2cc(NC[C@H]3CNCCO3)c(C(F)(F)F)cn2)cn1 [SRA737] + O=c1[nH]cc(F)c(=O)[nH]1 [5-Fluorouracil] (first compound max 10 µM, 7x7, partner max 20 µM)	-0.0047	-0.0447	0.0291	-0.0515	0.0235	0.0703	-0.0048	0.0125	0.0106	0.0691	–	–	–	–	–	–	–	–	–	–
N#Cc1cnc(Nc2cc(NC[C@H]3CNCCO3)c(C(F)(F)F)cn2)cn1 [SRA737] + CCc1c2c(nc3ccc(O)cc13)-c1cc3c(c(=O)n1C2)COC(=O)[C@]3(O)CC [SN-38] (first compound max 10 µM, 7x7, partner max 0.3 µM)	-0.0221	-0.0632	-0.128	–	-0.0387	-0.0479	-0.035	0.0451	-0.0251	0.0599	–	–	–	–	–	–	–	–	–	–
